US6562244B1, “Method and apparatus for disinfecting drainage” (Ebara Corporation, priority 1998, dated 2003)
≈ marks a conversion by molar mass, not a printed value.

Experiments:
coliform organisms [1] = assay: Sterilization test of treated drainage from marine product processing (Example 2); assay type: cell-based; settings: for Coliform organism count: marine product processing drainage (initial 320000 CFU/mL)
Procedure: Drainage from the marine product processing industry was subjected to coagulation, pressurization, floating, and separation. Then, the drainage was further treated by an activated sludge process. The resulting drainage was used as water to be treated. A sterilization test of this water to be treated was conducted, with the concentration of a disinfectant being varied. [table]

aquatic organisms = settings: calculated as active chlorine (Cl2); aquatic organisms in public waters; cited from earlier work
coliform organisms [2] = assay: Disinfection of wet-weather sewage by the system of FIGS. 1 to 3 (Example 3), coliform organism count; assay type: cell-based
Procedure: Examples of the present invention will now be described, but the invention is not restricted thereby. Drainage was treated by the system show in FIGS. 1 to 3. In all of RUN 1 to RUN 4, the amount of the disinfectant being 0 (zero) corresponds to the incoming water quality of wet-weather sewage which has flowed into rainwater removal facilities.

coliform organisms [3] = assay: Sterilization test of coliform organisms in treated sewage (Example 1); assay type: cell-based; settings: for Coliform organism count: treated sewage (initial 12600 CFU/mL)
Procedure: Treated sewage containing coliform organisms, as water to be treated, was subjected to a sterilization test. As a disinfectant, each of 1-bromo-3-chloro-5,5-dimethylhydantoin (hereinafter referred to as BCDMH) (Example 1) and sodium hypochlorite (Comparative Example 1) was used. The sterilization test of coliform organisms was conducted, with the concentration of the disinfectant being varied.
In the present specification, the proportion of the disinfectant added is expressed as active chlorine for each of the bromine-based disinfectant and the chlorine-based disinfectant, and is expressed as “mg/L as Cl” calculated as the active chlorine concentration. For example, when 1 g of BCDMH is added to 1 liter of drainage, its concentration is 540 mg/L as Cl.

[4] = disinfectant added 2.0 mg/L as Cl

CC1(C)C(=O)N(Cl)C(=O)N1Br [BCDMH, 1-bromo-3-chloro-5,5-dimethylhydantoin]
Coliform organism count (coliform organisms [1]; disinfectant added 2.0 mg/L as C1): 52000 CFU/mL
Coliform organism count (coliform organisms [1]; disinfectant added 3.0 mg/L as C1): 1200 CFU/mL
Coliform organism count (coliform organisms [1]; disinfectant added 3.5 mg/L as C1): Not detected
concentration exhibiting germicidal effect relative to the concentration of sodium hypochlorite (coliform organisms [1]; marine product processing drainage, Example 2): ⅓
LC50 (aquatic organisms): 0.4 µg/mL (≈ 1.66 µM)
Coliform organism count (coliform organisms [2]; RUN 1, sewage 120 m^3/h (incoming 97 × 10^3), amount added 6.0 mg/l as chlorine (Cl2)): 83 × 10^2 CFU/ml
Coliform organism count (coliform organisms [2]; RUN 1, sewage 120 m^3/h (incoming 97 × 10^3), amount added 12.0 mg/l as chlorine (Cl2)): less than 3,000 CFU/ml
Coliform organism count (coliform organisms [2]; RUN 2, sewage 250 m^3/h (incoming 68 × 10^3), amount added 5.0 mg/l as chlorine (Cl2)): less than 3,000 CFU/ml
Coliform organism count (coliform organisms [2]; RUN 2, sewage 250 m^3/h (incoming 68 × 10^3), amount added 5.0 mg/l as chlorine (Cl2), listed as A): 18 × 10^2 CFU/ml
Coliform organism count (coliform organisms [2]; RUN 2, sewage 250 m^3/h (incoming 68 × 10^3), amount added 10.0 mg/l as chlorine (Cl2)): 20 or less CFU/ml
Coliform organism count (coliform organisms [2]; RUN 3, sewage 530 m^3/h (incoming 39 × 10^3), amount added 3.0 mg/l as chlorine (Cl2)): 28 × 10^2 CFU/ml
duration of contact with combined sewer overflow for appropriate disinfection (coliform organisms [2]; RUN 3, sewage 530 m^3/hour, amount added 3 to 4.5 mg/l): about 50 seconds
Coliform organism count (coliform organisms [3]; disinfectant added 0.5 mg/L as Cl): 10800 CFU/mL
Coliform organism count (coliform organisms [3]; disinfectant added 1.5 mg/L as Cl): 70 CFU/mL
Coliform organism count (coliform organisms [3]; [4]): Not detected
concentration exhibiting germicidal effect relative to the concentration of sodium hypochlorite (coliform organisms [3]; treated sewage, Example 1): a half or less
reaction time to show sufficient effect (coliform organisms [3]; treated sewage, Example 1): 1 min

OCl [Sodium hypochlorite, sodium hypochlorite, reference compound]
Coliform organism count (coliform organisms [1]; disinfectant added 6 mg/L as C1): 135000 CFU/mL
Coliform organism count (coliform organisms [1]; disinfectant added 8 mg/L as C1): 1900 CFU/mL
Coliform organism count (coliform organisms [1]; disinfectant added 10 mg/L as C1): 900 CFU/mL
Coliform organism count (coliform organisms [1]; disinfectant added 12 mg/L as C1): Not detected
Coliform organism count (coliform organisms [2]; RUN 4, sewage 250 m^3/h (incoming 46 × 10^3), amount added 30 mg/l as chlorine (Cl2)): 19 × 10^3 CFU/ml
Coliform organism count (coliform organisms [2]; RUN 4, sewage 250 m^3/h (incoming 46 × 10^3), amount added 60 mg/l as chlorine (Cl2)): > 3,000 CFU/ml
Coliform organism count (coliform organisms [2]; RUN 4, sewage 250 m^3/h (incoming 46 × 10^3), amount added 60 mg/l as chlorine (Cl2), listed as B): 41 × 10^2 CFU/ml
Coliform organism count (coliform organisms [3]; [4]): 11800 CFU/mL
Coliform organism count (coliform organisms [3]; disinfectant added 2.5 mg/L as Cl): 2800 CFU/mL
Coliform organism count (coliform organisms [3]; disinfectant added 3.0 mg/L as Cl): 300 CFU/mL
Coliform organism count (coliform organisms [3]; disinfectant added 3.5 mg/L as Cl): Not detected
reaction time to show sufficient effect (coliform organisms [3]; treated sewage, Example 1): more than 5 minute
